How the values were obtained:
Assay in all cases: relative viability (nuclei count vs DMSO), 5 days (fraction); higher = more cells survive
[1] = compound: CN1CCN(c2ccc3nc(-c4c(N)c5c(F)cccc5[nH]c4=O)[nH]c3c2)CC1 [Dovitinib]
How it was run: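 Cells of lung cancer lines were placed in 1536-well plates and kept overnight at 37 °C. Pinning then delivered five library-drug doses (not always all listed), spaced by √10, onto plates anchored with vehicle, and the cells were left 5 days without changing medium. One step fixed, permeabilised and stained them with Hoechst, and MetaXpress counted nuclei in 4× images. Viability, as a median over plates, is treated-well nuclei divided by vehicle-well nuclei, with acceptance only at control CV below 25% and at least one doubling.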

[2] = compound: CN1CCN(c2ccc3nc(-c4c(N)c5c(F)cccc5[nH]c4=O)[nH]c3c2)CC1 [Dovitinib] + CC1(C)CCC(c2ccc(Cl)cc2)=C(CN2CCN(c3ccc(C(=O)NS(=O)(=O)c4ccc(N[C@H](CCN5CCOCC5)CSc5ccccc5)c(S(=O)(=O)C(F)(F)F)c4)cc3)CC2)C1 [Navitoclax] (partner 0.5 µM)
How it was run: (§1)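 Relative viability is defined as nuclei in treated wells over nuclei in vehicle wells. Duplicate plates were run and medians reported. Lung cancer cell lines in 1536-well plates were dosed by pin tool one day after seeding, with one drug or with a fixed anchor-drug dose plus five library-drug doses (not always all listed) in √10 steps, and nuclei were counted after 5 days.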

[3] = compound: CN1CCN(c2ccc3nc(-c4c(N)c5c(F)cccc5[nH]c4=O)[nH]c3c2)CC1 [Dovitinib] + Cc1cc(Nc2cc(N3CCN(C)CC3)nc(Sc3ccc(NC(=O)C4CC4)cc3)n2)n[nH]1 [Tozasertib] (partner 0.1 µM)
How it was run: as §1

[4] = compound: CN1CCN(c2ccc3nc(-c4c(N)c5c(F)cccc5[nH]c4=O)[nH]c3c2)CC1 [Dovitinib] + N=C(N)NC(=N)NCCc1ccccc1 [Phenformin] (partner 250 µM)
How it was run: as §1

Cell Line | relative viability ([1]; 0.02 µM) | relative viability ([1]; 0.06325 µM) | relative viability ([1]; 0.2 µM) | relative viability ([1]; 0.6325 µM) | relative viability ([1]; 2 µM) | relative viability ([2]; first compound 0.02 µM) | relative viability ([2]; first compound 0.06325 µM) | relative viability ([2]; first compound 0.2 µM) | relative viability ([2]; first compound 0.6325 µM) | relative viability ([2]; first compound 2 µM) | relative viability ([3]; first compound 0.02 µM) | relative viability ([3]; first compound 0.06325 µM) | relative viability ([3]; first compound 0.2 µM) | relative viability ([3]; first compound 0.6325 µM) | relative viability ([3]; first compound 2 µM) | relative viability ([4]; first compound 0.02 µM) | relative viability ([4]; first compound 0.06325 µM) | relative viability ([4]; first compound 0.2 µM) | relative viability ([4]; first compound 0.6325 µM) | relative viability ([4]; first compound 2 µM)
HCC-15 | 1.05 | 0.961 | 1.07 | 1.03 | 1 | 0.777 | 0.701 | 0.707 | 0.708 | 0.7 | 0.349 | 0.439 | 0.416 | 0.36 | 0.441 | 0.482 | 0.475 | 0.502 | 0.436 | 0.472
HCC-44 | 0.979 | 0.98 | 0.991 | 1 | 1.03 | 0.954 | 0.925 | 0.923 | 0.974 | 0.876 | 0.724 | 1.03 | 0.99 | 0.884 | 0.938 | 0.294 | 0.138 | 0.174 | 0.229 | 0.197
HCC-78 | 1.02 | 0.809 | 1.05 | 1.04 | 0.952 | 0.784 |  | 0.827 | 0.754 | 0.772 | 0.712 | 0.404 | 0.544 | 0.464 | 0.576 | 0.769 | 0.688 | 0.716 | 0.902 | 0.729
HCC-366 | 0.989 | 0.978 | 0.993 | 0.973 | 0.982 | 1.07 | 1.16 | 1.02 | 1.08 | 0.971 | 0.0642 | 0.143 | 0.14 | 0.127 | 0.111 | 0.628 | 0.6 | 0.636 | 0.57 | 0.641
HCC-827 | 1.05 | 1.01 | 1.05 | 1.1 | 1.03 | 1.03 | 1.02 | 1.07 | 1 | 0.974 | 0.44 | 0.455 | 0.441 | 0.43 | 0.469 | 0.395 | 0.402 | 0.426 | 0.41 | 0.405
HOP-62 | 0.907 | 1.03 | 1.03 | 1.06 | 1.04 | 0.95 | 0.995 | 1.01 | 1.1 | 1.08 | 0.316 | 0.401 | 0.346 | 0.384 | 0.424 | 0.616 | 0.713 | 0.742 | 0.55 | 0.646
LC-2-ad | 0.977 | 0.966 | 0.965 | 0.983 | 0.98 | 0.463 | 0.603 | 0.403 | 0.382 | 0.376 | 0.563 | 0.487 | 0.465 | 0.369 | 0.498 | 0.644 | 0.543 | 0.621 | 0.517 | 0.606
LCLC-97TM1 | 1.07 | 0.785 | 1.01 | 1 | 0.979 | 0.368 | 0.384 | 0.339 | 0.403 | 0.478 | 0.243 | 0.207 | 0.231 | 0.195 | 0.235 | 0.354 | 0.412 | 0.431 | 0.43 | 0.428

Source: the supplement of paper PMC10307832
